These results are taken from patent publication US12281122B1, “PI3K inhibitors” (Cogent Biosciences, Inc., priority 2023, dated 2025).

Some results are limits rather than exact numbers.

One test addresses PI3Kα (Homo sapiens, UniProt P42336). As to the kind of experiment: PI3Kα enzyme assay (Transcreener ADP2 TR-FRET Red Assay). The format is biochemical. As to conditions: purified recombinant full-length protein; 2 hours pre-incubation with compound; read-out: PI3Kα WT IC50. On the procedure: (§1) Activity against PI3Kα and PI3Kα H1047R enzymes were determined in biochemical assays using purified recombinant full-length proteins with the Transcreener ADP^2 TR-FRET Red Assay from Bellbrook Labs. (Catalogue number 3011-10K). Test compounds were dissolved in DMSO and were tested in 11 point 1:3 serial dilutions, typical final concentration range from 50,000 nM to 0.85 nM. Enzymes were pre-incubated with compounds for 2 hours at room temperature prior to initiating the reactions. Assays were initiated with a 2×ATP/PI(4,5)P2 diC8 substrate mixture. After 60 minutes at room temperature, the reactions were quenched with detection reagent and incubated for an additional 60 minutes at room temperature. The plates were read using a multimode reader and the emission ratio of 665 nm to 615 nm was determined. This ratio was converted to percent of control (POC). [1-(high control-sample signal)/(high control-low control)]*100. Wells without compound were used to determine high control values and wells without enzyme were used to determine low control values. The POC values were fit using a four-parameter logistic model and the value where the fit curve was equal to 50 POC was reported as the IC50 using the Signals VitroVivo software package (PerkinElmer). Final assay conditions were: 40 mM HEPES pH 7.5, 20 mM NaCl, 25 mM MgCl2, 0.01% Triton X-100. The enzyme source, catalogue number, final enzyme concentration, and final ATP and PI(4,5)P2 diC8 concentration can be found in the table E10 below.

The test system of test [1] is SKBR3 (PI3Kα-Wild Type) cell line. As to the kind of experiment: HTRF phospho-AKT(S473) cell assay in SKBR3 cells. The format is cell-based, human. As to conditions: Homo sapiens, SK-BR-3; SKBR3 (PI3Kα-Wild Type) cells, HTRF phospho-AKT(S473), 2 hours compound incubation, PDGF-BB stimulated. A digest of the protocol: (§2)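 pAKT(S473) in lysates read by HTRF after a 2 h, 37 °C compound exposure (12-point 1:3 series, max 0.5% DMSO). SKBR3 (wild type, top 10 μM) received 70 ng/ml PDGF-BB during the final 15 min; T47D (H1047R, top 5 μM) was unstimulated. IC50 values derived from the dose-response.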
On the technique in general: TR-FRET usually uses a lanthanide donor and a delayed reading to cut background.

Test [2] relates to T47D (PI3Kα-H1047R) cell line. Nature of the test: HTRF phospho-AKT(S473) cell assay in T47D cells. The format is cell-based, human. The following applies: Homo sapiens; T47D (PI3Kα-H1047R) cells, HTRF phospho-AKT(S473), 2 hours compound incubation. The method in brief: as §2
A further test addresses PI3Kα H1047R (Homo sapiens, UniProt P42336, H1047R). Nature of the test: PI3Kα H1047R enzyme assay (Transcreener ADP2 TR-FRET Red Assay). The format is biochemical. As to conditions: purified recombinant full-length protein; 2 hours pre-incubation with compound. On the procedure: as §1

PI3Kα H1047R, sequence (P42336 whole entry H1047R): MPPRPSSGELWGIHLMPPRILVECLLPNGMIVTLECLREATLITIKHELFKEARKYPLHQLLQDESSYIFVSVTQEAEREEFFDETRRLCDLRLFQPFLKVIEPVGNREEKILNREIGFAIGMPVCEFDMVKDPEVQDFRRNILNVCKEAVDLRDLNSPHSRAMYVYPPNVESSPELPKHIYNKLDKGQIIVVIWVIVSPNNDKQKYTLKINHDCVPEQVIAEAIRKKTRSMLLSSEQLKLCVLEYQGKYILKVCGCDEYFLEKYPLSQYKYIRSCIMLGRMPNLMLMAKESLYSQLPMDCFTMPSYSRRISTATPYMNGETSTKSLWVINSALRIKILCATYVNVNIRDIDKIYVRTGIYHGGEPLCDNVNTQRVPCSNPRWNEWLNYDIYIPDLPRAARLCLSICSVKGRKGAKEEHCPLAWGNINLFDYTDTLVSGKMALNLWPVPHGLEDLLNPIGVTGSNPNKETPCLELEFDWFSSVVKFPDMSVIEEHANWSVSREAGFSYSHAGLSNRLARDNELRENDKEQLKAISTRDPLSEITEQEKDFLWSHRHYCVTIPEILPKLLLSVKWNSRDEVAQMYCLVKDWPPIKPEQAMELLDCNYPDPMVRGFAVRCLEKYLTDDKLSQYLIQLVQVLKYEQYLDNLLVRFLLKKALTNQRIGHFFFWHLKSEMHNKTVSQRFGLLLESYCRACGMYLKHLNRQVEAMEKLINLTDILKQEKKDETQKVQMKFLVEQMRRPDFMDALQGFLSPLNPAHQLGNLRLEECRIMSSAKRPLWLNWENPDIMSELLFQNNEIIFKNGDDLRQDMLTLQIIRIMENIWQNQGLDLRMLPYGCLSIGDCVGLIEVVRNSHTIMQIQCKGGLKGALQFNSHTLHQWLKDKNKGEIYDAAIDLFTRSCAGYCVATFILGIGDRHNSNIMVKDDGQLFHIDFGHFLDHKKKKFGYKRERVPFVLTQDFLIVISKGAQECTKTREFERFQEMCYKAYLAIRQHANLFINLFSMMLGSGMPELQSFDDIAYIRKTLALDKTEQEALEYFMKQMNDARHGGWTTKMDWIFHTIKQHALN
PI3Kα H1047R, sequence (P27986 2-724 partner): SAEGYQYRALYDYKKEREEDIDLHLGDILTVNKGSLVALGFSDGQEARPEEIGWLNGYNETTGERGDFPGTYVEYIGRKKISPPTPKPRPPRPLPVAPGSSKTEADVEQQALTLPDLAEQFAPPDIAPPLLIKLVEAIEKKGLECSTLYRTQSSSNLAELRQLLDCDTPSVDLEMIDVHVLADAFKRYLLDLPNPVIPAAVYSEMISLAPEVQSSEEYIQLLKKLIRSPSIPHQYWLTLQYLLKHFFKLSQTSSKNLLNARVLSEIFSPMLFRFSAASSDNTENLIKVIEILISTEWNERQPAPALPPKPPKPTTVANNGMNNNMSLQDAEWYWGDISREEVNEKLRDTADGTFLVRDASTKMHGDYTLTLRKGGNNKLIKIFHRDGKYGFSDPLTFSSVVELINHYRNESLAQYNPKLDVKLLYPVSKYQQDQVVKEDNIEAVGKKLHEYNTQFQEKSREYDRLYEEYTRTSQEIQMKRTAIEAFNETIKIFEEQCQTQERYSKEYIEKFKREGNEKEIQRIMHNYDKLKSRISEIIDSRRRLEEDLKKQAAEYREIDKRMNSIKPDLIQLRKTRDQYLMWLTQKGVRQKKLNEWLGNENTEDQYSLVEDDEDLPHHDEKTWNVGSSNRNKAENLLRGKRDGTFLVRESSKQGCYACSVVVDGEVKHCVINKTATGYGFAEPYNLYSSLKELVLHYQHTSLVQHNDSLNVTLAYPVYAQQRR
PI3Kα, sequence (P42336 whole entry): as the sequence (P42336 whole entry H1047R) above, with R1047H counted along it
PI3Kα, sequence (P27986 2-724 partner): as the sequence (P27986 2-724 partner) above

As for `Cc1cc([C@@H](C)Nc2ccc(Cl)nc2C(=O)NS(C)(=O)=O)c2nc(N3C[C@@H]4C[C@H]3CO4)n(C)c(=O)c2c1` [Compound 27, 3-(((R)-1-(2-((1S,4S)-2-oxa-5-azabicyclo[2.2.1]heptan-5-yl)-3,6-dimethyl-4-oxo-3,4-dihydroquinazolin-8-yl)ethyl)amino)-6-chloro-N-(methylsulfonyl) picolinamide], the IC50 (commonly the concentration needed to halve the response being measured) at PI3Kα is no less than 1000 nM; in test [1], 1000 to 5000 nM; in test [2], less than 250 nM; at PI3Kα H1047R, 500 to 1000 nM.

On to `C[C@@H](Nc1ccc(Cl)nc1C(=O)NS(C)(=O)=O)c1cc(F)cc2c(=O)n(C)c(N3Cc4cnn(C)c4C3)nc12` [Compound 28, (R)-6-chloro-3-((1-(6-fluoro-3-methyl-2-(1-methyl-4,6-dihydropyrrolo[3,4-c]pyrazol-5(1H)-yl)-4-oxo-3,4-dihydroquinazolin-8-yl)ethyl)amino)-N-(methylsulfonyl) picolinamide], for which the IC50 at PI3Kα was no less than 1000 nM; in test [1], 1000 to 5000 nM; in test [2], less than 250 nM; on PI3Kα H1047R, 500 to 1000 nM.

Regarding `C[C@@H](Nc1ccc(Cl)nc1C(=O)NS(C)(=O)=O)c1cc(F)cc2c(=O)n(C)c(N3CC4CC4C3)nc12` (stereo partly drawn) [Compound 29, 3-(((1R)-1-(2-(3-azabicyclo[3.1.0]hexan-3-yl)-6-fluoro-3-methyl-4-oxo-3,4-dihydroquinazolin-8-yl)ethyl)amino)-6-chloro-N-(methylsulfonyl) picolinamide], the 50% inhibitory concentration (IC50) on PI3Kα was no less than 1000 nM; in test [1], 1000 to 5000 nM; in test [2], 250 to 500 nM; on PI3Kα H1047R, 250 to 500 nM.

With `C[C@@H](Nc1ccc(Cl)nc1C(=O)NS(C)(=O)=O)c1cc(F)cc2c(=O)n(C)c(N3CCc4c(cnn4C)C3)nc12` [Compound 30, (R)-6-chloro-3-((1-(6-fluoro-3-methyl-2-(1-methyl-1,4,6,7-tetrahydro-5H-pyrazolo[4,3-c]pyridin-5-yl)-4-oxo-3,4-dihydroquinazolin-8-yl)ethyl)amino)-N-(methylsulfonyl) picolinamide], the IC50 on PI3Kα is no less than 1000 nM; in test [1] it was 1000 to 5000 nM; in test [2], less than 250 nM; at PI3Kα H1047R, 100 to 250 nM.

In the case of `C[C@@H](Nc1ccc(Cl)nc1C(=O)NS(C)(=O)=O)c1cc(F)cc2c(=O)n(C)c(N3CCc4ccccc4C3)nc12` [Compound 31, (R)-6-chloro-3-((1-(2-(3,4-dihydroisoquinolin-2(1H)-yl)-6-fluoro-3-methyl-4-oxo-3,4-dihydroquinazolin-8-yl)ethyl)amino)-N-(methylsulfonyl) picolinamide], the IC50 at PI3Kα was no less than 1000 nM; in test [1] it was 1000 to 5000 nM; in test [2], 250 to 500 nM; on PI3Kα H1047R it was 100 to 250 nM.

As to `C[C@@H](Nc1ccc(Cl)nc1C(=O)NS(C)(=O)=O)c1cc(F)cc2c(=O)n(C)c(N3Cc4cccnc4C3)nc12` [Compound 32, (R)-6-chloro-3-((1-(2-(5,7-dihydro-6H-pyrrolo[3,4-b]pyridin-6-yl)-6-fluoro-3-methyl-4-oxo-3,4-dihydroquinazolin-8-yl)ethyl)amino)-N-(methylsulfonyl) picolinamide], the IC50 was 500 to 1000 nM on PI3Kα, 1000 to 5000 nM in test [1], 250 to 500 nM in test [2] and 250 to 500 nM on PI3Kα H1047R.

In the case of `Cc1cc([C@@H](C)Nc2ccc(Cl)nc2C(=O)NS(C)(=O)=O)c2nc(N3CCC4(CCOCC4)C3)n(C)c(=O)c2c1` [Compound 33, (R)-6-chloro-3-((1-(3,6-dimethyl-4-oxo-2-(8-oxa-2-azaspiro[4.5]decan-2-yl)-3,4-dihydroquinazolin-8-yl)ethyl)amino)-N-(methylsulfonyl) picolinamide], the IC50 at PI3Kα was no less than 1000 nM; in test [1], 1000 to 5000 nM; in test [2], 250 to 500 nM; at PI3Kα H1047R, 250 to 500 nM.

As for `Cc1cc([C@@H](C)Nc2ccc(Cl)nc2C(=O)NS(C)(=O)=O)c2nc(NCC(F)(F)F)n(C)c(=O)c2c1` [Compound 34, (R)-6-chloro-3-((1-(3,6-dimethyl-4-oxo-2-((2,2,2-trifluoroethyl)amino)-3,4-dihydroquinazolin-8-yl)ethyl)amino)-N-(methylsulfonyl) picolinamide], the IC50 was no less than 1000 nM on PI3Kα, 1000 to 5000 nM in test [1], 250 to 500 nM in test [2] and 500 to 1000 nM on PI3Kα H1047R.

Consider `Cc1cc([C@@H](C)Nc2cc(C)c(Cl)nc2C(=O)NS(C)(=O)=O)c2nc(N3Cc4ccc(F)cc4C3)n(C)c(=O)c2c1` [Compound 35, (R)-6-chloro-3-((1-(2-(5-fluoroisoindolin-2-yl)-3,6-dimethyl-4-oxo-3,4-dihydroquinazolin-8-yl)ethyl)amino)-5-methyl-N-(methylsulfonyl) picolinamide], for which the IC50 is no less than 1000 nM on PI3Kα, no less than 5000 nM in test [1], 1000 to 5000 nM in test [2] and no less than 1000 nM at PI3Kα H1047R.

For `Cc1cc([C@@H](C)Nc2ccc(Cl)nc2C(=O)NS(C)(=O)=O)c2nc(N3CCO[C@@H](C)C3)n(C)c(=O)c2c1` [Compound 36, 6-chloro-3-(((R)-1-(3,6-dimethyl-2-((S)-2-methylmorpholino)-4-oxo-3,4-dihydroquinazolin-8-yl)ethyl)amino)-N-(methylsulfonyl) picolinamide], the IC50 was no less than 1000 nM on PI3Kα, 1000 to 5000 nM in test [1], 250 to 500 nM in test [2] and no less than 1000 nM at PI3Kα H1047R.

For the compound `C[C@@H](Nc1ccc(Cl)nc1C(=O)NS(C)(=O)=O)c1cc(F)cc2c(=O)n(C)c(N3Cc4cn(C)nc4C3)nc12` [Compound 37, (R)-6-chloro-3-((1-(6-fluoro-3-methyl-2-(2-methyl-2,6-dihydropyrrolo[3,4-c]pyrazol-5(4H)-yl)-4-oxo-3,4-dihydroquinazolin-8-yl)ethyl)amino)-N-(methylsulfonyl) picolinamide], the concentration for half-maximal inhibition (IC50) is no less than 1000 nM at PI3Kα, 500 to 1000 nM in test [1], less than 250 nM in test [2] and 250 to 500 nM at PI3Kα H1047R.

In the case of `C[C@@H](Nc1ccc(Cl)nc1C(=O)NS(C)(=O)=O)c1cccc2c(=O)n(C)c(N3Cc4cnn(C)c4C3)nc12` [Compound 38, (R)-6-chloro-3-((1-(3-methyl-2-(1-methyl-4,6-dihydropyrrolo[3,4-c]pyrazol-5(1H)-yl)-4-oxo-3,4-dihydroquinazolin-8-yl)ethyl)amino)-N-(methylsulfonyl) picolinamide], the IC50 at PI3Kα is no less than 1000 nM; in test [1], 1000 to 5000 nM; in test [2], 250 to 500 nM; on PI3Kα H1047R, 500 to 1000 nM.

For the compound `C[C@@H](Nc1ccc(Cl)nc1C(=O)NS(C)(=O)=O)c1cccc2c(=O)n(C)c(N3CCC(F)(F)CC3)nc12` [Compound 39, (R)-6-chloro-3-((1-(2-(4,4-difluoropiperidin-1-yl)-3-methyl-4-oxo-3,4-dihydroquinazolin-8-yl)ethyl)amino)-N-(methylsulfonyl) picolinamide], the IC50 on PI3Kα is no less than 1000 nM; in test [1] it was 1000 to 5000 nM; in test [2] it was less than 250 nM; on PI3Kα H1047R it was 500 to 1000 nM.

`Cc1cc([C@@H](C)Nc2ccc(Cl)nc2C(=O)NS(C)(=O)=O)c2nc(N(C)C)n(C)c(=O)c2c1` [Compound 40, (R)-6-chloro-3-((1-(2-(dimethylamino)-3,6-dimethyl-4-oxo-3,4-dihydroquinazolin-8-yl)ethyl)amino)-N-(methylsulfonyl) picolinamide]: the IC50 at PI3Kα is no less than 1000 nM; in test [1] it was 1000 to 5000 nM; in test [2] it was 250 to 500 nM; at PI3Kα H1047R, no less than 1000 nM.

With `CCn1cc2c(n1)CN(c1nc3c([C@@H](C)Nc4ccc(Cl)nc4C(=O)NS(C)(=O)=O)cc(C)cc3c(=O)n1C)C2` [Compound 44, (R)-6-chloro-3-((1-(2-(2-ethyl-2,6-dihydropyrrolo[3,4-c]pyrazol-5(4H)-yl)-3,6-dimethyl-4-oxo-3,4-dihydroquinazolin-8-yl)ethyl)amino)-N-(methylsulfonyl) picolinamide], the IC50 at PI3Kα is no less than 1000 nM; in test [1], 1000 to 5000 nM; in test [2] it was less than 250 nM; at PI3Kα H1047R it was 100 to 250 nM.

On to `CCn1ncc2c1CN(c1nc3c([C@@H](C)Nc4ccc(Cl)nc4C(=O)NS(C)(=O)=O)cc(C)cc3c(=O)n1C)C2` [Compound 45, (R)-6-chloro-3-((1-(2-(1-ethyl-4,6-dihydropyrrolo[3,4-c]pyrazol-5(1H)-yl)-3,6-dimethyl-4-oxo-3,4-dihydroquinazolin-8-yl)ethyl)amino)-N-(methylsulfonyl) picolinamide], for which the IC50 was 500 to 1000 nM at PI3Kα, 1000 to 5000 nM in test [1], less than 250 nM in test [2] and 100 to 250 nM on PI3Kα H1047R.
